# From PubChem BioAssay (NCI)
#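 Five compound concentrations were applied to cells in 96-well plates for 48 hours; endpoints were derived by simple linear interpolation of the resulting dose-response curve. GI50 marks 50% less growth. Definition used: TGI = concentration required for complete inhibition of growth.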
# Assays:
# Assay in all cases: NCI-60 cell line screen, 48 h
# M14 melanoma = system: M14 melanoma
# SN12C renal = system: SN12C renal
# PC-3 prostate = system: PC-3 prostate
# NCI-H460 lung = system: NCI-H460 lung
# SW-620 colon = system: SW-620 colon
# SK-OV-3 ovarian = system: SK-OV-3 ovarian
# MALME-3M melanoma = system: MALME-3M melanoma
# KM12 colon = system: KM12 colon
# BT-549 breast = system: BT-549 breast
# RXF 393 renal = system: RXF 393 renal
# MCF7 breast = system: MCF7 breast
# UACC-257 melanoma = system: UACC-257 melanoma
# A498 renal = system: A498 renal
# HCT-116 colon = system: HCT-116 colon
# SF-539 CNS = system: SF-539 CNS
# HT29 colon = system: HT29 colon
# IGROV1 ovarian = system: IGROV1 ovarian
# OVCAR-5 ovarian = system: OVCAR-5 ovarian
# U251 CNS = system: U251 CNS
# CCRF-CEM leukemia = system: CCRF-CEM leukemia
# LOX IMVI melanoma = system: LOX IMVI melanoma
# SF-268 CNS = system: SF-268 CNS
# SNB-75 CNS = system: SNB-75 CNS
# COLO 205 colon = system: COLO 205 colon
# SNB-19 CNS = system: SNB-19 CNS
# K-562 leukemia = system: K-562 leukemia
# NCI-H23 lung = system: NCI-H23 lung
# SK-MEL-2 melanoma = system: SK-MEL-2 melanoma
# NCI-H226 lung = system: NCI-H226 lung
# HCT-15 colon = system: HCT-15 colon
# HS 578T breast = system: HS 578T breast
# UACC-62 melanoma = system: UACC-62 melanoma
# EKVX NSCLC = system: EKVX NSCLC
# HCC-2998 colon = system: HCC-2998 colon
# RPMI-8226 leukemia = system: RPMI-8226 leukemia
# OVCAR-3 ovarian = system: OVCAR-3 ovarian
# TK-10 renal = system: TK-10 renal
# SK-MEL-5 melanoma = system: SK-MEL-5 melanoma
# MDA-MB-435 = system: MDA-MB-435
# OVCAR-4 ovarian = system: OVCAR-4 ovarian
# UO-31 renal = system: UO-31 renal
# 786-0 renal = system: 786-0 renal
# OVCAR-8 ovarian = system: OVCAR-8 ovarian
# DU-145 prostate = system: DU-145 prostate
# HL-60(TB) leukemia = system: HL-60(TB) leukemia
# T-47D breast = system: T-47D breast
# MOLT-4 leukemia = system: MOLT-4 leukemia
# SF-295 CNS = system: SF-295 CNS
# SK-MEL-28 melanoma = system: SK-MEL-28 melanoma
# MDA-MB-231 breast = system: MDA-MB-231 breast
# HOP-62 NSCLC = system: HOP-62 NSCLC
# HOP-92 NSCLC = system: HOP-92 NSCLC
# NCI-H522 lung = system: NCI-H522 lung
# CAKI-1 renal = system: CAKI-1 renal
# NCI/ADR-RES ovarian = system: NCI/ADR-RES ovarian
# ACHN renal = system: ACHN renal
# A549 NSCLC = system: A549 NSCLC
structure (smiles),measurement,setting,value
C=C1C(=O)O[C@H]2[C@H]1CC/C(COC(=O)NCc1ccc(Cn3c(=O)sn(CCCl)c3=O)cc1)=C\CC[C@@]1(C)O[C@@H]21,GI50,M14 melanoma,1.82 µM
same,TGI,M14 melanoma,3.65 µM
same,GI50,SN12C renal,2.01 µM
same,TGI,SN12C renal,4.28 µM
same,GI50,PC-3 prostate,8.09 µM
same,TGI,PC-3 prostate,21 µM
same,GI50,NCI-H460 lung,15 µM
same,TGI,NCI-H460 lung,32.5 µM
same,GI50,SW-620 colon,1.17 µM
same,TGI,SW-620 colon,2.69 µM
same,GI50,SK-OV-3 ovarian,16.1 µM
same,TGI,SK-OV-3 ovarian,29.7 µM
same,GI50,MALME-3M melanoma,1.72 µM
same,TGI,MALME-3M melanoma,3.46 µM
same,GI50,KM12 colon,13.4 µM
same,TGI,KM12 colon,27.7 µM
same,GI50,BT-549 breast,1.45 µM
same,TGI,BT-549 breast,2.78 µM
same,GI50,RXF 393 renal,1.18 µM
same,TGI,RXF 393 renal,2.64 µM
same,GI50,MCF7 breast,1.91 µM
same,TGI,MCF7 breast,4.4 µM
same,GI50,UACC-257 melanoma,1.85 µM
same,TGI,UACC-257 melanoma,4.98 µM
same,GI50,A498 renal,11.5 µM
same,TGI,A498 renal,23.8 µM
same,GI50,HCT-116 colon,1.62 µM
same,TGI,HCT-116 colon,3.08 µM
same,GI50,SF-539 CNS,1.82 µM
same,TGI,SF-539 CNS,3.26 µM
same,GI50,HT29 colon,2.16 µM
same,TGI,HT29 colon,4.77 µM
same,GI50,IGROV1 ovarian,2.5 µM
same,TGI,IGROV1 ovarian,6.79 µM
same,GI50,OVCAR-5 ovarian,1.97 µM
same,TGI,OVCAR-5 ovarian,4.19 µM
same,GI50,U251 CNS,6.79 µM
same,TGI,U251 CNS,20.2 µM
same,GI50,CCRF-CEM leukemia,1.73 µM
same,TGI,CCRF-CEM leukemia,7 µM
same,GI50,LOX IMVI melanoma,1.69 µM
same,TGI,LOX IMVI melanoma,3.12 µM
same,GI50,SF-268 CNS,3.73 µM
same,TGI,SF-268 CNS,14.6 µM
same,GI50,SNB-75 CNS,7.65 µM
same,TGI,SNB-75 CNS,21 µM
same,GI50,COLO 205 colon,1.84 µM
same,TGI,COLO 205 colon,3.6 µM
same,GI50,SNB-19 CNS,11.9 µM
same,TGI,SNB-19 CNS,26.1 µM
same,GI50,K-562 leukemia,2.07 µM
same,TGI,K-562 leukemia,5.63 µM
same,GI50,NCI-H23 lung,2.18 µM
same,TGI,NCI-H23 lung,5.2 µM
same,GI50,SK-MEL-2 melanoma,10.6 µM
same,TGI,SK-MEL-2 melanoma,24.7 µM
same,GI50,NCI-H226 lung,17.2 µM
same,TGI,NCI-H226 lung,37.3 µM
same,GI50,HCT-15 colon,1.85 µM
same,TGI,HCT-15 colon,3.82 µM
same,GI50,HS 578T breast,12.1 µM
same,TGI,HS 578T breast,55.9 µM
same,GI50,UACC-62 melanoma,1.86 µM
same,TGI,UACC-62 melanoma,3.95 µM
same,GI50,EKVX NSCLC,1.99 µM
same,TGI,EKVX NSCLC,5.25 µM
same,GI50,HCC-2998 colon,17.3 µM
same,TGI,HCC-2998 colon,33 µM
same,GI50,RPMI-8226 leukemia,2.37 µM
same,TGI,RPMI-8226 leukemia,6.25 µM
same,GI50,OVCAR-3 ovarian,1.53 µM
same,TGI,OVCAR-3 ovarian,2.88 µM
same,GI50,TK-10 renal,1.77 µM
same,TGI,TK-10 renal,3.43 µM
same,GI50,SK-MEL-5 melanoma,1.7 µM
same,TGI,SK-MEL-5 melanoma,3.24 µM
same,GI50,MDA-MB-435,1.74 µM
same,TGI,MDA-MB-435,3.47 µM
same,GI50,OVCAR-4 ovarian,1.92 µM
same,TGI,OVCAR-4 ovarian,4.01 µM
same,GI50,UO-31 renal,1.65 µM
same,TGI,UO-31 renal,3.25 µM
same,GI50,786-0 renal,1.79 µM
same,TGI,786-0 renal,3.27 µM
same,GI50,OVCAR-8 ovarian,2.04 µM
same,TGI,OVCAR-8 ovarian,4.81 µM
same,GI50,DU-145 prostate,1.72 µM
same,TGI,DU-145 prostate,3.14 µM
same,GI50,HL-60(TB) leukemia,1.92 µM
same,TGI,HL-60(TB) leukemia,4.96 µM
same,GI50,T-47D breast,1.97 µM
same,TGI,T-47D breast,5.16 µM
same,GI50,MOLT-4 leukemia,1.85 µM
same,TGI,MOLT-4 leukemia,5.92 µM
same,GI50,SF-295 CNS,16.4 µM
same,TGI,SF-295 CNS,30.3 µM
same,GI50,SK-MEL-28 melanoma,1.74 µM
same,TGI,SK-MEL-28 melanoma,3.38 µM
same,GI50,MDA-MB-231 breast,1.89 µM
same,TGI,MDA-MB-231 breast,3.68 µM
same,GI50,HOP-62 NSCLC,16.3 µM
same,TGI,HOP-62 NSCLC,31.5 µM
same,GI50,HOP-92 NSCLC,1.5 µM
same,TGI,HOP-92 NSCLC,3.22 µM
same,GI50,NCI-H522 lung,1.38 µM
same,TGI,NCI-H522 lung,2.98 µM
same,GI50,CAKI-1 renal,1.76 µM
same,TGI,CAKI-1 renal,3.71 µM
same,GI50,NCI/ADR-RES ovarian,26.3 µM
same,TGI,NCI/ADR-RES ovarian,77.8 µM
same,GI50,ACHN renal,1.54 µM
same,TGI,ACHN renal,2.87 µM
same,GI50,A549 NSCLC,14.2 µM
same,TGI,A549 NSCLC,29.1 µM
